Results published in patent US10792257B2, “Pharmaceutical compositions comprising safinamide” (Zambon S.P.A., priority 2016, dated 2020).

Columns and labels:
[1] = Organoleptic characteristics of the active ingredient as noted by the inventors; conditions: for irritation of the mucosae: unmasked active ingredient, oropharynx
[2] = Solubility in saliva; type: physicochemical

Compound | irritant effect in the oral cavity ([1]; attempts to modify the pH of the pharmaceutical preparation) | irritation of the mucosae [1] | solubility in saliva [2]
C[C@H](NCc1ccc(OCc2cccc(F)c2)cc1)C(N)=O [safinamide methanesulfonate, Safinamide methanesulfonate] | did not lead to a reduction of the irritant effect | pronounced tendency to irritate the mucosae of the first section of the oropharynx | fairly soluble in saliva
(2 S)-2-[[4-[(3-fluorophenypmethoxy]phenyl]methyl amino]propanamide [safinamide] | – | pronounced tendency to irritate the mucosae of the first section of the oropharynx | –
